Experiment [1] addresses EGFR Del19/T790M/C797S (H1975-clone #28) (Homo sapiens, UniProt P00533, T790M/C797S, form not given). In words: EGFR degradation, HTRF total-EGFR assay, H1975-clone #28 (DTC). Format: cell-based. Conditions: H1975-clone #28 Del19/T790M/C797S, 16 h treatment. The essentials: (§1)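 H1975 clones with endogenous EGFR knocked out and homozygous exogenous EGFR mutants (#28 Del19/T790M/C797S; #25 L858R/T790M/C797S) treated 16 h at 37 °C, 8 doses, 5-fold from 10 μM, 0.2% DMSO. Total EGFR measured by HTRF on lysates, normalised to DMSO controls; DC50 and Dmax from curve fit.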

Experiment [2] deals with T1, EGFR L858R/T790M/C797S (H1975-clone #25) (Homo sapiens, UniProt P00533, C797S/L858R/T790M).
T1 construct: expressed in transfected cells; host or cells: H1975 (clone #25), lentiviral transduction, endogenous EGFR knocked out
T1 sequence (P00533 25-1210 T790M/C797S/L858R): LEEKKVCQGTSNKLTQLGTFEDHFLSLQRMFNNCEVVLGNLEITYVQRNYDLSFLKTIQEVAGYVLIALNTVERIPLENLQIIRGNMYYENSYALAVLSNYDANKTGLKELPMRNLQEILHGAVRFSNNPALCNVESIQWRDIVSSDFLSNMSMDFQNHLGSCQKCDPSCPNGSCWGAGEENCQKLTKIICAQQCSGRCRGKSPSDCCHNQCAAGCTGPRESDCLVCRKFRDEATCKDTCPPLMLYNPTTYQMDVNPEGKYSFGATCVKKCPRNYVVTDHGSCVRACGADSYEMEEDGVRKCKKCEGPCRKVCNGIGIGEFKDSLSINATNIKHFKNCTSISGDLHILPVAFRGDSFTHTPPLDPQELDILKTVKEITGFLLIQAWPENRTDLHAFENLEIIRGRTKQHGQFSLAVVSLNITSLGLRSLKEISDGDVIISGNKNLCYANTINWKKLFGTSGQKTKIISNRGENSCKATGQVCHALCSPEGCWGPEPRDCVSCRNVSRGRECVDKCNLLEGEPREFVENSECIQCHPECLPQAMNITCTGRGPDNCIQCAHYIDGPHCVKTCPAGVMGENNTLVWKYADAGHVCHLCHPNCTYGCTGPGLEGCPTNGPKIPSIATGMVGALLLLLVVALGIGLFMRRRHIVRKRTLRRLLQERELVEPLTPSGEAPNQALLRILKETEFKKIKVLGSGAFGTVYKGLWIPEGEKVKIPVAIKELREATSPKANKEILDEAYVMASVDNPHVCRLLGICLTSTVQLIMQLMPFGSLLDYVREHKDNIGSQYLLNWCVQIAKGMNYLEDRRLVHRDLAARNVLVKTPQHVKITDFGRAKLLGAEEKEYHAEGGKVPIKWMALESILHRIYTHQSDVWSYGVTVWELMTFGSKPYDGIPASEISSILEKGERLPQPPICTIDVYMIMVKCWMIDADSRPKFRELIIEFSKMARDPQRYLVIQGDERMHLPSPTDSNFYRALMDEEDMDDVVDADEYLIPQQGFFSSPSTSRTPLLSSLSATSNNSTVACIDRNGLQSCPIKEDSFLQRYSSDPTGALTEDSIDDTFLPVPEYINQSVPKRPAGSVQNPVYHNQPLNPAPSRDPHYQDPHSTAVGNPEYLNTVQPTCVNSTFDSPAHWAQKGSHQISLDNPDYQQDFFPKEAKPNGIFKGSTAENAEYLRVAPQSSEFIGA
In words: EGFR degradation, HTRF total-EGFR assay, H1975-clone #25 (LTC). Conditions: H1975-clone #25 L858R/T790M/C797S, 16 h treatment. In kind it is cell-based. The gist of the method:
as §1

Here are results for 14 compounds from patent US20250332266A1, “COMPOUNDS FOR THE DEGRADATION OF EGFR KINASE” (BeiGene Switzerland GmbH, priority 2022, published 2025).

Sequence of EGFR Del19/T790M/C797S (H1975-clone #28) (P00533 with tags, fused parts or gaps DEL746-750/T790M/C797S, form open): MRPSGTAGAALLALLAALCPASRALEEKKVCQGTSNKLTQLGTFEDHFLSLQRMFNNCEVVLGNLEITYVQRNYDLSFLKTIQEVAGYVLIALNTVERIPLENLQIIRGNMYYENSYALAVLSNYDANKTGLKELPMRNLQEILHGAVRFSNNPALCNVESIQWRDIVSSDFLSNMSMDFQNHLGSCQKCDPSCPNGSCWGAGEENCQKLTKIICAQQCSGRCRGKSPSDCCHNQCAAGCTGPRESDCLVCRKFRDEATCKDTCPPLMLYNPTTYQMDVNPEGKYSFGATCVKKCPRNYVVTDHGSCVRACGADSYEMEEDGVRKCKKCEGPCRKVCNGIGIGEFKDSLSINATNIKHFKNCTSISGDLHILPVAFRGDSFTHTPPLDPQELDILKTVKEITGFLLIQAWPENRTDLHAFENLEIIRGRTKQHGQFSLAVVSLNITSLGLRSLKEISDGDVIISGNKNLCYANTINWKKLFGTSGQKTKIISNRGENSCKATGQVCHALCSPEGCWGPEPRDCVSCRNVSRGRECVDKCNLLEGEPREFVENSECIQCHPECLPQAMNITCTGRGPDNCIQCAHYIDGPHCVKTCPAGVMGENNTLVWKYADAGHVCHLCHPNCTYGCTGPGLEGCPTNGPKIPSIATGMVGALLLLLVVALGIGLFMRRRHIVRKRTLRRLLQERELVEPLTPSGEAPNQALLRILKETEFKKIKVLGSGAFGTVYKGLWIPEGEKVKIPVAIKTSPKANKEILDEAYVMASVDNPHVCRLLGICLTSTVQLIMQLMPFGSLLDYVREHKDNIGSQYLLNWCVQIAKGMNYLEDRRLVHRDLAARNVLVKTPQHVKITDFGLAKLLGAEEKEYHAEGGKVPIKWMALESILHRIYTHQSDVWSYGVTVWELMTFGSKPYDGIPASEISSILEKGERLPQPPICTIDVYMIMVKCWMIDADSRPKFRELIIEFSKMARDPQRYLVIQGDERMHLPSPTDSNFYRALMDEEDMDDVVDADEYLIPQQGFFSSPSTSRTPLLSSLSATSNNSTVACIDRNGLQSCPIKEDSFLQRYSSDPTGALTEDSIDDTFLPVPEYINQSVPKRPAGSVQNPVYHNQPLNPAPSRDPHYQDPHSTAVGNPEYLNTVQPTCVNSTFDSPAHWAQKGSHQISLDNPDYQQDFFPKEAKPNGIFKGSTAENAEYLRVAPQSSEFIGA

For `Cc1cc2cc(n1)-c1cnn(C)c1OC[C@H]1C[C@@H](CN3/C(=N/C2=O)Nc2ccc(N4CCN(CCc5ccc(C6CCC(=O)NC6=O)nc5C)CC4)cc23)C1` (stereo partly shown) [Example 82, 3-(5-(2-(4-((7^1s,7^3s,E)-1^1,2^6-dimethyl-3-oxo-5^2,5^3-dihydro-1^1H,5^1H-9-oxa-4-aza-5(2,1)-benzo[d]imidazola-2(2,4)-pyridina-1(4,5)-pyrazola-7(1,3)-cyclobutanacyclononaphane-5^6-yl)piperazin-1-yl)ethyl)-6-methylpyridin-2-yl)piperidine-2,6-dione], the “Degradation H1975 # 28 DTC” value in experiment [1] was found to be 79.5. Besides, the “Degradation H1975 # 25-LTC” value in experiment [2] stood at 90.3.
The corresponding values for `COC[C@@H]1CN(c2ccc3c(c2)N2C[C@H]4C[C@@H](COc5c(cnn5C)-c5cc(cc(C)n5)C(=O)/N=C/2N3)C4)CCN1C1CCN(c2ccc(C3CCC(=O)NC3=O)nc2C)CC1` (stereo partly shown) [Example 109] are 81.0 and 90.4.
The matching figures for `Cc1cc2cc(n1)-c1cnn(C)c1OC[C@H]1C[C@@H](CN3/C(=N/C2=O)Nc2ccc(N4CCC(N5CCN(c6cnc(C7CCC(=O)NC7=O)cc6C)C[C@@H]5C)CC4)cc23)C1` (stereo partly drawn) [Example 110, 3-(5-((S)-4-(1-((7^1s,7^3R,E)-1^1,2^6-dimethyl-3-oxo-5^2,5^3-dihydro-1^1H,5^1H-9-oxa-4-aza-5(2,1)-benzo[d]imidazola-2(2,4)-pyridina-1(4,5)-pyrazola-7(1,3)-cyclobutanacyclononaphane-5^6-yl)piperidin-4-yl)-3-methylpiperazin-1-yl)-4-methylpyridin-2-yl)piperidine-2,6-dione]: 82.2 and 90.3.
The corresponding values for `Cc1cc2cc(n1)-c1cnn(C)c1OC[C@H]1C[C@@H](CN3/C(=N/C2=O)Nc2ccc(N(C)C4CC5(C4)CN(C4CCN(c6ccc(C7CCC(=O)NC7=O)nc6C)CC4)C5)cc23)C1` (stereo partly shown) [Example 112, 3-(5-(4-(6-(((7^1s,7^3s,E)-1^1,2^6-dimethyl-3-oxo-5^2,5^3-dihydro-1^1′H,5^1H-9-oxa-4-aza-5(2,1)-benzo[d]imidazola-2(2,4)-pyridina-1(4,5)-pyrazola-7(1,3)-cyclobutanacyclononaphane-5^6-yl)(methyl)amino)-2-azaspiro[3.3]heptan-2-yl)piperidin-1-yl)-6-methylpyridin-2-yl)piperidine-2,6-dione] are 75.2 and 85.2.
Turning to `Cc1cc2cc(n1)-c1cnn(C)c1OC[C@H]1C[C@@H](CN3/C(=N/C2=O)Nc2ccc(N4CC5(C4)CN(C4CCN(c6ccc(C7CCC(=O)NC7=O)nc6C)CC4)C5)cc23)C1` (stereo partly shown) [Example 113, 3-(5-(4-(6-((7^1s,7^3s,E)-1^1,2^6-dimethyl-3-oxo-5^2,5^3-dihydro-1^1H,5^1H-9-oxa-4-aza-5(2,1)-benzo[d]imidazola-2(2,4)-pyridina-1(4,5)-pyrazola-7(1,3)-cyclobutanacyclononaphane-5^6-yl)-2,6-diazaspiro[3.3]heptan-2-yl)piperidin-1-yl)-6-methylpyridin-2-yl)piperidine-2,6-dione], the “Degradation H1975 # 28 DTC” value in experiment [1] was 75.7. Besides, the “Degradation H1975 # 25-LTC” value in experiment [2] was 78.4.
With `Cc1cc2cc(n1)-c1cnn(C)c1OC[C@H]1C[C@@H](CN3/C(=N/C2=O)Nc2ccc(N(C)CC4CN(C5CCN(c6ccc(C7CCC(=O)NC7=O)nc6C)CC5)C4)cc23)C1` (stereo partly shown) [Example 114, 3-(5-(4-(3-((((7^1s,7^3s,E)-1^1,2^6-dimethyl-3-oxo-5^2,5^3-dihydro-1′H,5^1H-9-oxa-4-aza-5(2,1)-benzo[d]imidazola-2(2,4)-pyridina-1(4,5)-pyrazola-7(1,3)-cyclobutanacyclononaphane-5^6-yl)(methyl)amino)methyl)azetidin-1-yl)piperidin-1-yl)-6-methylpyridin-2-yl)piperidine-2,6-dione], the “Degradation H1975 # 28 DTC” value in experiment [1] is reported as 79.0. For the same compound, the “Degradation H1975 # 25-LTC” value in experiment [2] was determined as 86.8.
The matching figures for `Cc1cc2cc(n1)-c1cnn(C)c1OC[C@H]1C[C@@H](CN3/C(=N/C2=O)Nc2ccc(N4C[C@@H]5C[C@H]4CN5C4CCN(c5ccc(C6CCC(=O)NC6=O)nc5C)CC4)cc23)C1` (stereo partly drawn) [Example 117, 3-(5-(4-((1S,4S)-5-((7^1s,7^3R,E)-1^1,2^6-dimethyl-3-oxo-5^2,5^3-dihydro-1^1H,5^1H-9-oxa-4-aza-5(2,1)-benzo[d]imidazola-2(2,4)-pyridina-1(4,5)-pyrazola-7(1,3)-cyclobutanacyclononaphane-5^6-yl)-2,5-diazabicyclo[2,2,1]heptan-2-yl)piperidin-1-yl)-6-methylpyridin-2-yl)piperidine-2,6-dione]: 78.2 and 90.6.
The corresponding values for `COC[C@@H]1CN(c2ccc3c(c2)N2C[C@H]4C[C@@H](COc5c(cnn5C)-c5cc(cc(C)n5)C(=O)/N=C/2N3)C4)CCN1C1CCN(c2cnc(C3CCC(=O)NC3=O)cc2C)CC1` (stereo partly drawn) [Example 120, 3-(5-(4-((S)-4-((7^1s,7^3R,E)-1^1,2^6-dimethyl-3-oxo-5^2,5^3-dihydro-1^1H,5^1H-9-oxa-4-aza-5(2,1)-benzo[d]imidazola-2(2,4)-pyridina-1(4,5)-pyrazola-7(1,3)-cyclobutanacyclononaphane-5^6-yl)-2-(methoxymethyl)piperazin-1-yl)piperidin-1-yl)-4-methylpyridin-2-yl)piperidine-2,6-dione] are 82.4 and 83.1.
The corresponding values for `Cc1cc2cc(n1)-c1cnn(C)c1OC[C@H]1C[C@@H](CN3/C(=N/C2=O)Nc2ccc(N4CCN(C5CN(C6CCN(c7ccc(C8CCC(=O)NC8=O)nc7C)CC6)C5)CC4)cc23)C1` (stereo partly shown) [Example 121, 3-(5-(4-(3-(4-((7^1s,7^3s,E)-1^1,2^6-dimethyl-3-oxo-5^2,5^3-dihydro-1^1H,5^1H-9-oxa-4-aza-5(2,1)-benzo[d]imidazola-2(2,4)-pyridina-1(4,5)-pyrazola-7(1,3)-cyclobutanacyclononaphane-5^6-yl)piperazin-1-yl)azetidin-1-yl)piperidin-1-yl)-6-methylpyridin-2-yl)piperidine-2,6-dione] are 83.2 and 89.5.
As to `Cc1cc2cc(n1)-c1cnn(C)c1OC[C@H]1C[C@@H](CN3/C(=N/C2=O)Nc2ccc(N4CC[C@H](N5CCN(c6ccc(C7CCC(=O)NC7=O)nc6C)CC5)C(F)(F)C4)cc23)C1` (stereo partly drawn) [Example 122, 3-(5-(4-((S)-1-((7^1s,7^3R,E)-1^1,2^6-dimethyl-3-oxo-5^2,5^3-dihydro-1^1H,5^1H-9-oxa-4-aza-5(2,1)-benzo[d]imidazola-2(2,4)-pyridina-1(4,5)-pyrazola-7(1,3)-cyclobutanacyclononaphane-5^6-yl)-3,3-difluoropiperidin-4-yl)piperazin-1-yl)-6-methylpyridin-2-yl)piperidine-2,6-dione], the “Degradation H1975 # 28 DTC” value in experiment [1] is 84.1. Besides, the “Degradation H1975 # 25-LTC” value in experiment [2] was found to be 90.9.
The corresponding values for `Cc1cc2cc(n1)-c1cnn(C)c1OC[C@H]1C[C@@H](CN3/C(=N/C2=O)Nc2ccc(N4CCN([C@@H]5CCN(c6ccc(C7CCC(=O)NC7=O)nc6C)CC5(F)F)CC4)cc23)C1` (stereo partly drawn) [Example 123, 3-(5-((R)-4-(4-((7^1s,7^3S,E)-1^1,2^6-dimethyl-3-oxo-5^2,5^3-dihydro-1^1H,5^1H-9-oxa-4-aza-5(2,1)-benzo[d]imidazola-2(2,4)-pyridina-1(4,5)-pyrazola-7(1,3)-cyclobutanacyclononaphane-5^6-yl)piperazin-1-yl)-3,3-difluoropiperidin-1-yl)-6-methylpyridin-2-yl)piperidine-2,6-dione] are 85.6 and 92.1.
Consider `Cc1cc2cc(n1)-c1cnn(C)c1OC[C@H]1C[C@@H](CN3/C(=N/C2=O)Nc2ccc(N4CCN(C5CCN(c6ccc(C7CCC(=O)NC7=O)nc6C)CC5)CC45COC5)cc23)C1` (stereo partly shown) [Example 124, 3-(5-(4-(5-((7^1s,7^3S,E)-1^1,2^6-dimethyl-3-oxo-5^2,5^3-dihydro-1^1H,5^1H-9-oxa-4-aza-5(2,1)-benzo[d]imidazola-2(2,4)-pyridina-1(4,5)-pyrazola-7(1,3)-cyclobutanacyclononaphane-5^6-yl)-2-oxa-5,8-diazaspiro[3.5]nonan-8-yl)piperidin-1-yl)-6-methylpyridin-2-yl)piperidine-2,6-dione], for which, in experiment [1], the “Degradation H1975 # 28 DTC” value amounted to 82.6. Moreover, the “Degradation H1975 # 25-LTC” value in experiment [2] was 87.5.
For the compound `Cc1cc2cc(n1)-c1cnn(C)c1OC[C@H]1C[C@@H](CN3/C(=N/C2=O)Nc2ccc(N4CCN([C@H]5CCN(c6ccc(C7CCC(=O)NC7=O)nc6C)CC5(F)F)CC4)cc23)C1` (stereo partly drawn) [Example 125, 3-(5-((S)-4-(4-((7^1s,7^3R,E)-1^1,2^6-dimethyl-3-oxo-5^2,5^3-dihydro-1^1H,5^1H-9-oxa-4-aza-5(2,1)-benzo[d]imidazola-2(2,4)-pyridina-1(4,5)-pyrazola-7(1,3)-cyclobutanacyclononaphane-5^6-yl)piperazin-1-yl)-3,3-difluoropiperidin-1-yl)-6-methylpyridin-2-yl)piperidine-2,6-dione], in experiment [1], the “Degradation H1975 # 28 DTC” value came to 89.9. Also, the “Degradation H1975 # 25-LTC” value in experiment [2] was 86.8.
As for `Cc1cc2cc(n1)-c1cnn(C)c1OC[C@H]1C[C@@H](CN3/C(=N/C2=O)Nc2ccc(N4CC5CCC4CN5C4CCN(c5ccc(C6CCC(=O)NC6=O)nc5C)CC4)cc23)C1` (stereo partly shown) [Example 126, 3-(5-(4-(5-((7^1s,7^3s,E)-1^1,2^6-dimethyl-3-oxo-5^2,5^3-dihydro-1^1H,5^1H-9-oxa-4-aza-5(2,1)-benzo[d]imidazola-2(2,4)-pyridina-1(4,5)-pyrazola-7(1,3)-cyclobutanacyclononaphane-5^6-yl)-2,5-diazabicyclo[2.2.2]octan-2-yl)piperidin-1-yl)-6-methylpyridin-2-yl)piperidine-2,6-dione], the “Degradation H1975 # 28 DTC” value in experiment [1] was found to be 80.5. Also, the “Degradation H1975 # 25-LTC” value in experiment [2] is listed as 85.9.
